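Where inhibition never reached the appropriate level, the endpoint shown equals the highest concentration tested. Otherwise, values were interpolated linearly from a five-concentration, 48-hour dose response in 96-well plates. Here, GI50 denotes the concentration required for 50% inhibition of growth. TGI: concentration producing complete growth inhibition.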
How the values were obtained:
Assay in all cases: NCI tumour cell line growth inhibition, 48 h
EKVX NSCLC = test system: EKVX NSCLC
UACC-257 melanoma = test system: UACC-257 melanoma
RXF 393 renal = test system: RXF 393 renal
SK-MEL-28 melanoma = test system: SK-MEL-28 melanoma
HCT-15 colon = test system: HCT-15 colon
SNB-19 CNS = test system: SNB-19 CNS
SF-539 CNS = test system: SF-539 CNS
CCRF-CEM leukemia = test system: CCRF-CEM leukemia
MDA-MB-231 breast = test system: MDA-MB-231 breast
DU-145 prostate = test system: DU-145 prostate

| SMILES | TGI (EKVX NSCLC) | TGI (UACC-257 melanoma) | TGI (RXF 393 renal) | TGI (SK-MEL-28 melanoma) | TGI (HCT-15 colon) | TGI (SNB-19 CNS) | TGI (SF-539 CNS) | TGI (CCRF-CEM leukemia) | GI50 (EKVX NSCLC) | GI50 (UACC-257 melanoma) | GI50 (RXF 393 renal) | GI50 (SK-MEL-28 melanoma) | GI50 (MDA-MB-231 breast) | TGI (MDA-MB-231 breast) | GI50 (HCT-15 colon) | GI50 (SNB-19 CNS) | GI50 (SF-539 CNS) | GI50 (CCRF-CEM leukemia) | TGI (DU-145 prostate) | GI50 (DU-145 prostate) |
| --- | --- | --- | --- | --- | --- | --- | --- | --- | --- | --- | --- | --- | --- | --- | --- | --- | --- | --- | --- | --- |
| COc1ccc(C(=O)CC(=O)C(=O)Nc2ccc(C)c(C)c2)cc1 | > 100 µM | > 100 µM | 97.9 µM | > 100 µM | > 57.1 µM | > 100 µM | > 100 µM | > 74.5 µM | – | – | – | – | – | – | – | – | – | – | – | – |
| COc1cc(/C=C2\C(=O)N(c3ccccc3)c3ccccc32)cc(OC)c1OC | 65.6 µM | 19.9 µM | 2.87 µM | 18.4 µM | 17.1 µM | 25.5 µM | 91.7 µM | 7.78 µM | 23.5 µM | 6.66 µM | 0.107 µM | 4.91 µM | 4.12 µM | 26.1 µM | 4.37 µM | 6.1 µM | 5.38 µM | 1.75 µM | – | – |
| CCCCCNC(=O)c1c(O)[nH]c(=S)[nH]c1=O | – | > 100 µM | – | > 100 µM | > 100 µM | > 100 µM | > 100 µM | > 100 µM | – | – | – | – | – | – | – | – | – | – | – | – |
| CCCC(=O)Nc1ccc2c(c1)CN1C(=O)c3ccccc3C1=N2 | – | > 100 µM | – | > 100 µM | > 100 µM | > 100 µM | > 100 µM | – | – | – | – | – | – | > 100 µM | – | – | – | – | > 100 µM | – |
| Cc1nn(-c2ccccc2)c2nc3c(nc12)C1=NCCN1C(c1ccc(Cl)cc1)N3 (stereo unspecified) | – | 3.49 µM | 3.07 µM | 3.37 µM | 9.75 µM | 26.9 µM | 4.23 µM | 7.85 µM | – | 1.79 µM | 1.56 µM | 1.78 µM | 1.81 µM | 4.95 µM | 2.89 µM | 9.91 µM | 1.94 µM | 2.69 µM | 17.9 µM | 5.9 µM |
| COc1ccc(-c2nc(N3CCOCC3)c3sc(CN(C)c4ncc(C(=O)NO)cn4)cc3n2)cn1 | – | 0.0466 µM | 0.0453 µM | 0.136 µM | – | 0.0907 µM | 0.161 µM | 1.53 µM | – | < 0.01 µM | < 0.0122 µM | 0.0129 µM | 0.0282 µM | 0.331 µM | – | < 0.01 µM | 0.0101 µM | < 0.01 µM | 0.141 µM | < 0.01 µM |
| CCOC(=O)C(=O)Nc1c(C)cccc1C(C)C | > 100 µM | > 100 µM | – | > 100 µM | > 100 µM | > 100 µM | > 100 µM | > 100 µM | – | – | – | – | – | – | – | – | – | – | – | – |
| CCOC(=O)C(C(=O)OCC)=C1N[C@H](C(=O)OCC)CS1 | > 100 µM | > 100 µM | > 100 µM | > 100 µM | > 100 µM | > 100 µM | > 100 µM | > 100 µM | – | – | – | – | – | – | – | – | – | – | – | – |
| COc1ccccc1C(N)c1ccccc1 (stereo unspecified) | > 100 µM | > 100 µM | > 100 µM | > 100 µM | > 100 µM | > 100 µM | > 100 µM | > 100 µM | – | – | – | – | – | – | – | – | – | – | – | – |
| Cc1ccc(NC2=C(Cl)C(=O)N(Cc3ccccc3)C2=O)cc1Cl | 28.9 µM | – | 10.6 µM | 29.3 µM | 21.4 µM | 34.7 µM | – | 19.4 µM | 14.1 µM | – | 2.33 µM | 12.9 µM | – | – | 5.4 µM | 11.2 µM | – | 4.23 µM | 27.8 µM | 14.4 µM |
| CCOC(=O)N[C@@H]1C2CC(=O)C(O2)[C@@H]1OC (stereo partly specified) | > 100 µM | > 100 µM | > 100 µM | > 100 µM | > 100 µM | > 100 µM | > 100 µM | > 100 µM | – | – | – | – | – | – | – | – | – | – | – | – |
| COC(=O)CS(=O)c1ccccc1 (stereo unspecified) | > 100 µM | > 100 µM | 49.2 µM | > 100 µM | > 100 µM | > 100 µM | 44.1 µM | 63.2 µM | – | – | – | – | – | – | – | – | – | – | – | – |
| c1ccc(CN2CCCCC(Sc3ccccc3)CC2)cc1 (stereo unspecified) | > 100 µM | > 100 µM | – | > 100 µM | 33.5 µM | > 100 µM | 77.4 µM | 43.8 µM | – | – | – | – | – | – | – | – | – | – | – | – |
| Cc1cc(=O)oc2c(OS(C)(=O)=O)c(OS(C)(=O)=O)ccc12 | > 100 µM | > 100 µM | – | > 100 µM | > 100 µM | > 100 µM | > 100 µM | > 100 µM | – | – | – | – | – | > 100 µM | – | – | – | – | – | – |
| COc1ccc(C(=O)C(C(=O)C(=O)NC2C3CC4CC(C3)CC2C4)c2ccc(OC)cc2)cc1 (stereo unspecified) | > 100 µM | > 100 µM | – | > 100 µM | > 100 µM | > 100 µM | > 100 µM | > 100 µM | – | – | – | – | – | – | – | – | – | – | – | – |
| CCCCCCCCCCCCCCCCCC(=O)OCC(C[As](=O)(O)O)OC(=O)CCCCCCCCCCCCCCCCC (stereo unspecified) | > 100 µM | > 100 µM | 47 µM | > 100 µM | > 100 µM | 77.4 µM | > 100 µM | > 100 µM | – | – | – | – | – | – | – | – | – | – | – | – |
| O=C(Nc1ccc(OCc2nnc(-c3ccccc3)o2)c(F)c1)Nc1ccc(Cl)c(C(F)(F)F)c1 | – | – | 8.98 µM | > 100 µM | 14.8 µM | 16.7 µM | 13 µM | 10.6 µM | – | – | 2.62 µM | 3.08 µM | 2.3 µM | 6.03 µM | 2.28 µM | 2.35 µM | 2.41 µM | 2.38 µM | 3.53 µM | 1.8 µM |
| COc1cccc(Cn2c(-c3nonc3NC(C)=O)nc3ccccc32)c1 | – | 88.4 µM | 5.74 µM | > 100 µM | > 100 µM | > 100 µM | > 100 µM | > 100 µM | – | 5.71 µM | 1.92 µM | 6.17 µM | 3.62 µM | > 100 µM | 3.59 µM | 7.15 µM | 3.65 µM | > 100 µM | 83.9 µM | 3.42 µM |
| COC1=CC(c2ccc[nH]2)=N/C1=C\c1[nH]c(C)c(C(C)=O)c1C | > 100 µM | > 100 µM | – | > 100 µM | 2.15 µM | > 100 µM | 54.4 µM | > 100 µM | 2.25 µM | 3.44 µM | – | 2.46 µM | – | – | 0.21 µM | 24.2 µM | 2.15 µM | 0.0183 µM | > 100 µM | 0.355 µM |
